Consider four sequences from patent US20070128217A1 (priority 2003, published 2007).

Assay [1] deals with control sera (pooled serum of ten healthy LUMC hospital workers; commercial negative donor pooled serum from the Dutch bloodbank). In kind it is binding, human. The arrangement: Binding of Control serum LUMC to linear peptides / Binding of Control serum Blood-bank to linear peptides / Binding of Control serum LUMC to looped peptides / Binding of Control Serum Blood-Bank to Looped peptides / Binding of Control serum LUMC to linear peptides of the protein M of SARS-CoV Urbani / Binding of Control serum Blood-bank to linear peptides of the protein M of SARS-CoV Urbani / Binding of Control serum LUMC to looped peptides of the protein M of SARS-CoV Urbani / Binding of Control Serum Blood-Bank to Looped peptides of the protein M of SARS-CoV Urbani: unit not given here.

The subject of assay [2] is antibodies in sera from SARS patients (sera 1a, 1b, 2, 6, 37, 62, London, SARS-yellow, SARS-green). In kind it is binding, human. More on the design: Binding of serum 6 to linear peptides of protein X1 of SARS-CoV Urbani / Binding of serum 37 to linear peptides of protein X1 of SARS-CoV Urbani / Binding of serum 6 to looped/cyclic peptide (PEPSCAN-ELISA) / Binding of serum 37 to looped/cyclic peptide (PEPSCAN-ELISA) / Binding of serum 37 to looped/cyclic peptides of protein X1 of SARS-CoV Urbani / Binding of serum 6 to linear peptides of protein X2 / Binding of serum 37 to linear peptides of protein X2 / Binding of serum 37 to looped/cyclic peptides of protein X2 of SARS-CoV Urbani / Binding of serum 6 to linear peptides of protein M of SARS-CoV Urbani / Binding of serum 37 to linear peptides of protein M of SARS-CoV Urbani / Binding of serum 6 to looped/cyclic peptides of protein M of SARS-CoV Urbani / Binding of serum 37 to looped/cyclic peptides of protein M of SARS-CoV Urbani / Binding of serum 6 to linear peptides of protein X3 of SARS-CoV Urbani / Binding of serum 37 to linear peptides of protein X3 of SARS-CoV Urbani / Binding of serum 37 to looped/cyclic peptides of protein X3 of SARS-CoV Urbani / Binding of serum 6 to linear peptides of protein X4 of SARS-CoV Urbani / Binding of serum 37 to linear peptides of protein X4 of SARS-CoV Urbani / Binding of serum 37 to looped/cyclic peptides of protein X4 of SARS-CoV Urbani / Binding of serum 6 to linear peptides of protein X5 of SARS-CoV Urbani / Binding of serum 37 to linear peptides of protein X5 of SARS-CoV Urbani / Binding of serum 37 to looped/cyclic peptides of protein X5 of SARS-CoV Urbani / Binding of serum 6 to linear peptides of protein N of SARS-CoV Urbani / Binding of serum 37 to linear peptides of protein N of SARS-CoV Urbani / Binding of serum 6 to linear peptide (PEPSCAN-ELISA) / Binding of serum 1a to looped/cyclic peptides of protein N of SARS-CoV Urbani / Binding of serum 1b to looped/cyclic peptides of protein N of SARS-CoV Urbani / Binding of serum 2 to looped/cyclic peptides of protein N of SARS-CoV Urbani / Binding of serum 6 to looped/cyclic peptides of protein N of SARS-CoV Urbani / Binding of serum 37 to looped/cyclic peptides of protein N of SARS-CoV Urbani / Binding of serum 62 to looped/cyclic peptides of protein N of SARS-CoV Urbani / Binding of serum London to looped/cyclic peptides of protein N of SARS-CoV Urbani / Binding of serum SARS-green to looped/cyclic peptides of protein N of SARS-CoV Urbani: unit not given here.

The test system of assay [3] is rabbit serum obtained by immunizing a rabbit with the SARS-CoV strain Frankfurt 1. Format: binding. The arrangement: Binding of a rabbit serum to linear peptides / Binding of a rabbit serum to looped peptides / Rabbit serum linear peptides / Rabbit serum looped peptides / Binding of a rabbit serum to linear peptides of protein N of SARS-CoV Urbani (Rabbit serum linear peptides) / Binding of a rabbit serum to looped/cyclic peptides of protein N of SARS-CoV Urbani (Rabbit serum looped peptides): unit not given here.

Turning to PLQASLPFGWLVIGV, in assay [1], the “Binding of Control Serum Blood-Bank to Looped peptides” value came out at 0.7, the “Binding of Control serum Blood-bank to linear peptides” value is recorded as 0.8, the “Binding of Control serum LUMC to linear peptides” value is recorded as 0.9 and the “Binding of Control serum LUMC to looped peptides” value turned out to be 0.5. Besides, in assay [2], the “Binding of serum 1a to linear peptides of protein X1 of SARS-CoV Urbani” value is given as 0.8, the “Binding of serum 1a to looped/cyclic peptide (PEPSCAN-ELISA)” value is 0.5, the “Binding of serum 1b to linear peptides of protein X1 of SARS-CoV Urbani” value was determined as 0.5 and the “Binding of serum 1b to looped/cyclic peptide (PEPSCAN-ELISA)” value turned out to be 0.3. Further, in assay [2], the “Binding of serum 2 to linear peptides of protein X1 of SARS-CoV Urbani” value is 0.5, the “Binding of serum 2 to looped/cyclic peptide (PEPSCAN-ELISA)” value came to 0.4, the “Binding of serum 6 to linear peptides of protein X1 of SARS-CoV Urbani” value is on record as 0.5 and the “Binding of serum 6 to looped/cyclic peptide (PEPSCAN-ELISA)” value stood at 0.4. Besides, in assay [2], the “Binding of serum 37 to linear peptides of protein X1 of SARS-CoV Urbani” value is given as 0.7, the “Binding of serum 37 to looped/cyclic peptide (PEPSCAN-ELISA)” value was 0.5, the “Binding of serum 62 to linear peptides of protein X1 of SARS-CoV Urbani” value is recorded as 0.7 and the “Binding of serum 62 to looped/cyclic peptide (PEPSCAN-ELISA)” value was 0.7. Also, in assay [2], the “Binding of serum London to linear peptides of protein X1 of SARS-CoV Urbani” value is given as 0.3, the “Binding of serum London to looped/cyclic peptide (PEPSCAN-ELISA)” value is on record as 0.2, the “Binding of serum SARS-green to linear peptides of protein X1 of SARS-CoV Urbani” value turned out to be 0.4 and the “Binding of serum SARS-green to looped/cyclic peptide (PEPSCAN-ELISA)” value stood at 0.3. In assay [2], the “Binding of serum SARS-yellow to linear peptides of protein X1 of SARS-CoV Urbani” value is given as 0.6 and the “Binding of serum SARS-yellow to looped/cyclic peptide (PEPSCAN-ELISA)” value is 0.4. Besides, in assay [3], the “Binding of a rabbit serum to linear peptides” value came out at 0.1 and the “Binding of a rabbit serum to looped peptides” value was 0.4.
With PPNVQIHTIDGSSGV, in assay [1], the “Binding of Control Serum Blood-Bank to Looped peptides” value was determined as 0.5, the “Binding of Control serum Blood-bank to linear peptides” value was 0.5, the “Binding of Control serum LUMC to linear peptides” value is given as 0.5 and the “Binding of Control serum LUMC to looped peptides” value worked out at 0.7. Besides, in assay [2], the “Binding of serum 1a to linear peptides of protein X1 of SARS-CoV Urbani” value is on record as 0.6, the “Binding of serum 1a to looped/cyclic peptides of protein X1 of SARS-CoV Urbani” value was 0.5, the “Binding of serum 1b to linear peptides of protein X1 of SARS-CoV Urbani” value was 0.5 and the “Binding of serum 1b to looped/cyclic peptides of protein X1 of SARS-CoV Urbani” value is 0.4. Also, in assay [2], the “Binding of serum 2 to linear peptides of protein X1 of SARS-CoV Urbani” value amounted to 0.4, the “Binding of serum 2 to looped/cyclic peptides of protein X1 of SARS-CoV Urbani” value was 0.3, the “Binding of serum 6 to linear peptides of protein X1 of SARS-CoV Urbani” value amounted to 0.4 and the “Binding of serum 6 to looped/cyclic peptides of protein X1 of SARS-CoV Urbani” value is 0.4. Besides, in assay [2], the “Binding of serum 37 to linear peptides of protein X1 of SARS-CoV Urbani” value was determined as 0.7, the “Binding of serum 37 to looped/cyclic peptides of protein X1 of SARS-CoV Urbani” value was found to be 0.6, the “Binding of serum 62 to linear peptides of protein X1 of SARS-CoV Urbani” value is recorded as 0.6 and the “Binding of serum 62 to looped/cyclic peptides of protein X1 of SARS-CoV Urbani” value stood at 0.5. For the same sequence, in assay [2], the “Binding of serum London to linear peptides of protein X1 of SARS-CoV Urbani” value is listed as 0.3, the “Binding of serum London to looped/cyclic peptides of protein X1 of SARS-CoV Urbani” value came out at 0.2, the “Binding of serum SARS-green to linear peptides of protein X1 of SARS-CoV Urbani” value came to 0.3 and the “Binding of serum SARS-green to looped/cyclic peptides of protein X1 of SARS-CoV Urbani” value is 0.4. For the same sequence, in assay [2], the “Binding of serum SARS-yellow to linear peptides of protein X1 of SARS-CoV Urbani” value worked out at 0.4 and the “Binding of serum SARS-yellow to looped/cyclic peptides of protein X1 of SARS-CoV Urbani” value is reported as 0.3. Moreover, in assay [3], the “Binding of a rabbit serum to linear peptides” value was 0.1 and the “Binding of a rabbit serum to looped peptides” value stood at 0.5.
In the case of PVTLACFVLAAVYRI, in assay [1], the “Binding of Control Serum Blood-Bank to Looped peptides of the protein M of SARS-CoV Urbani” value was found to be 0.6, the “Binding of Control serum Blood-bank to linear peptides of the protein M of SARS-CoV Urbani” value amounted to 0.5, the “Binding of Control serum LUMC to linear peptides of the protein M of SARS-CoV Urbani” value is 0.2 and the “Binding of Control serum LUMC to looped peptides of the protein M of SARS-CoV Urbani” value came to 0.7. For the same sequence, in assay [2], the “Binding of serum 1a to linear peptides of protein M of SARS-CoV Urbani” value was 0.7, the “Binding of serum 1a to looped/cyclic peptides of protein M of SARS-CoV Urbani” value is recorded as 0.7, the “Binding of serum 1b to linear peptides of protein M of SARS-CoV Urbani” value is recorded as 0.5 and the “Binding of serum 1b to looped/cyclic peptides of protein M of SARS-CoV Urbani” value was found to be 0.6. Further, in assay [2], the “Binding of serum 2 to linear peptides of protein M of SARS-CoV Urbani” value was found to be 0.5, the “Binding of serum 2 to looped/cyclic peptides of protein M of SARS-CoV Urbani” value is reported as 0.6, the “Binding of serum 6 to linear peptides of protein M of SARS-CoV Urbani” value turned out to be 0.3 and the “Binding of serum 6 to looped/cyclic peptides of protein M of SARS-CoV Urbani” value is on record as 0.7. In assay [2], the “Binding of serum 37 to linear peptides of protein M of SARS-CoV Urbani” value worked out at 0.6, the “Binding of serum 37 to looped/cyclic peptides of protein M of SARS-CoV Urbani” value was 0.7, the “Binding of serum 62 to linear peptides of protein M of SARS-CoV Urbani” value stood at 0.7 and the “Binding of serum 62 to looped/cyclic peptides of protein M of SARS-CoV Urbani” value is given as 0.7. Moreover, in assay [2], the “Binding of serum London to linear peptides of protein M of SARS-CoV Urbani” value is recorded as 0.3, the “Binding of serum London to looped/cyclic peptides of protein M of SARS-CoV Urbani” value is reported as 0.2, the “Binding of serum SARS-green to linear peptides of protein M of SARS-CoV Urbani” value is 0.2 and the “Binding of serum SARS-green to looped/cyclic peptides of protein M of SARS-CoV Urbani” value turned out to be 0.2. Moreover, in assay [2], the “Binding of serum SARS-yellow to linear peptides of protein M of SARS-CoV Urbani” value was found to be 0.0 and the “Binding of serum SARS-yellow to looped/cyclic peptides of protein M of SARS-CoV Urbani” value came out at 0.6. In addition, in assay [3], the “Rabbit serum linear peptides” value is 0.4 and the “Rabbit serum looped peptides” value came to 0.3.
Regarding QCINACRIIMRCWLC, in assay [1], the “Binding of Control Serum Blood-Bank to Looped peptides” value stood at 0.6, the “Binding of Control serum Blood-bank to linear peptides” value was 0.9, the “Binding of Control serum LUMC to linear peptides” value was found to be 0.7 and the “Binding of Control serum LUMC to looped peptides” value is 0.7. Also, in assay [2], the “Binding of serum 1a to linear peptides of protein X1 of SARS-CoV Urbani” value is 0.8, the “Binding of serum 1a to looped/cyclic peptide (PEPSCAN-ELISA)” value was 0.6, the “Binding of serum 1b to linear peptides of protein X1 of SARS-CoV Urbani” value is reported as 0.6 and the “Binding of serum 1b to looped/cyclic peptide (PEPSCAN-ELISA)” value is 0.4. Also, in assay [2], the “Binding of serum 2 to linear peptides of protein X1 of SARS-CoV Urbani” value came out at 0.5, the “Binding of serum 2 to looped/cyclic peptide (PEPSCAN-ELISA)” value is 0.6, the “Binding of serum 6 to linear peptides of protein X1 of SARS-CoV Urbani” value is reported as 0.8 and the “Binding of serum 6 to looped/cyclic peptide (PEPSCAN-ELISA)” value was found to be 0.8. In addition, in assay [2], the “Binding of serum 37 to linear peptides of protein X1 of SARS-CoV Urbani” value was 0.7, the “Binding of serum 37 to looped/cyclic peptide (PEPSCAN-ELISA)” value is on record as 0.6, the “Binding of serum 62 to linear peptides of protein X1 of SARS-CoV Urbani” value turned out to be 0.7 and the “Binding of serum 62 to looped/cyclic peptide (PEPSCAN-ELISA)” value was 0.7. Also, in assay [2], the “Binding of serum London to linear peptides of protein X1 of SARS-CoV Urbani” value is recorded as 0.4, the “Binding of serum London to looped/cyclic peptide (PEPSCAN-ELISA)” value was found to be 1.4, the “Binding of serum SARS-green to linear peptides of protein X1 of SARS-CoV Urbani” value is 0.2 and the “Binding of serum SARS-green to looped/cyclic peptide (PEPSCAN-ELISA)” value is recorded as 0.2. Also, in assay [2], the “Binding of serum SARS-yellow to linear peptides of protein X1 of SARS-CoV Urbani” value came to 0.3 and the “Binding of serum SARS-yellow to looped/cyclic peptide (PEPSCAN-ELISA)” value is on record as 0.4. In addition, the “Recognition of the peptide by the rabbit serum” value in assay [3] is given as “recognized”.
